From patent publication US20260364184A1, “COMPOUND BASED ON OXOISOINDOLINYL-SUBSTITUTED TETRAHYDROPYRIMIDINE-DIONE AND USE THEREOF” (GLUETACS THERAPEUTICS (SHANGHAI) CO., LTD., priority 2023, published 2026) come the findings set out here.

For orientation: inhibition means the relative decrease from the control value, in per cent.

Molecules are shown by their SMILES.

Experiment [1] concerns Human Acute T Lymphoblastic Leukemia Cells (Molt-4). The experiment can be described thus: Inhibition of Molt-4 cell proliferation (CellTiter luminescent viability). It is filed as cell-based. Conditions: Homo sapiens, MOLT-4, 96 h, Table IH3, BCL-2 inhibitor-based, 96 hours; for inhibition at 0.01 µM: Molt-4, 10 nM, read-out: Inhibition Rate at 10 nM (%); for inhibition at 0.5 µM: Molt-4, 500 nM, read-out: Inhibition Rate at 500 nM (%).

The subject of experiment [2] is Human acute lymphocytic leukemia T lymphocytes cell line (CCRF-CEM). The experiment can be described thus: Inhibition of CCRF-CEM cell proliferation (CellTiter luminescent viability). It is filed as cell-based. Conditions: Homo sapiens, 96 h, Table IH2, BCL-2 inhibitor-based; for inhibition at 0.01 µM: 10 nM, read-out: Inhibition Rate at 10 nM (%); for inhibition at 0.5 µM: 500 nM, read-out: Inhibition Rate at 500 nM (%).

In experiment [3] the test system is Human prostate cancer cell line (NCI-H358). The experiment can be described thus: Inhibition of NCI-H358 cell proliferation (CellTiter luminescent viability). Conditions: Table IH1, BCL-2 inhibitor-based, 96 hours; for inhibition at 0.01 µM: NCI-H358, 10 nM, read-out: Inhibition Rate at 10 nM (%); for inhibition at 0.5 µM: NCI-H358, 500 nM, read-out: Inhibition Rate at 500 nM (%). The procedure: The tumor cells used herein were cultured in a cell culture medium listed in table 3 at 37 °C in an incubator with 5% CO2. Prior to experimentation, all cell lines used were correctly identified by STR profiling, and tested negative for mycoplasma contamination using a mycoplasma detection kit through routine screenings.
The IC50 values of the compounds of the present disclosure (including the compounds in Table 1, Table 2, and Examples 1-468) were determined using the CellTiter-Meiluncell Luminescent Cell Viability Assay Kit from Dalian Meilun Biotech Co., Ltd. The detailed procedure is as follows: Tumor cells were seeded in 96-well cell culture plates at the densities specified in Table 4. On the following day, the test compounds of the present disclosure were subjected to serial dilution. The dilution can be performed according to one of the following two methods: • (1) The first dilution method: The test compounds of the present disclosure (including the compounds in Table 1, Table 2, and Examples 1-468) were subjected to 5-fold serial dilutions starting from a highest concentration of 2000 μM, resulting in a total of 9 concentrations from high to low (2000, 400, 80, 16, 3.2, 0.64, 0.128, 0.0256, 0.00512 μM). Subsequently, 0.5 μL of the test compound dilution was transferred into the 96-well plate containing the cells, with each well containing 100 μL of cell culture medium. […] Into the 96-well plate, the diluted test compounds and corresponding detection reagents were added, resulting in final test compound concentrations of 500 nM and 10 nM, respectively. The experimental procedure is described below using the diluted 2 μM test compound as an example.
0.5 μL of the aforementioned diluted compound of the present disclosure (including the compounds in Table 1, Table 2, and Examples 1-468) was added to the seeded cells in 100 μL of medium, yielding a final test compound concentration of 10 nM. After the cells were treated with the compounds of the present disclosure for a specified period, the cell viability assay reagent was added to the culture medium according to the kit's instructions to determine cell viability. […] All controls were treated using the same procedure as the compounds of the present disclosure. The growth inhibition curves for the compounds of the present disclosure were plotted using Prism GraphPad software, and the IC50 values were calculated therefrom.

Experiment [4] addresses T1, BRM (Homo sapiens, UniProt P51531).
T1 construct: expression of target proteins in cells; endogenous in cells
The experiment can be described thus: Western blot degradation of BRM (SMARCA2). Conditions: Molt-4 Cell; 24 hours. It is filed as cell-based. On the procedure:
(§1) Conventional Western blot assay was performed to evaluate the effects of the compounds of the present disclosure on the expression of target proteins in cells.
(§2) (1) Cell Seeding and Protein Harvesting: The selected cells were processed according to the cell seeding procedure and protein harvesting procedure in Table II-2.
(§3) (2) To the collected supernatant, 5×SDS sample loading buffer was added, followed by denaturation at 95 °C for 5 minutes. The denatured samples were then separated by SDS-PAGE electrophoresis on a polyacrylamide gel. Proteins were transferred to a nitrocellulose membrane (0.45 μm NC membrane), blocked with blocking buffer at room temperature for 1 hour, and subjected to antibody incubation and development procedures according to the antibody manufacturer's instructions (Cell Signaling Technology).
(§4) Half-Maximal Degradation Concentration value (the drug concentration required for degrading proteins by 50%, abbreviated as DC50) reads method: comparing the grayscale values of Western blot bands from drug-treated samples with those from blank DMSO-treated controls, and identifying the drug concentration range at which the grayscale value is half that of the DMSO-treated control bands.
(§5) DC50 values can be calculated using ImageJ software to measure grayscale values of Western blot bands from drug-treated samples. The concentration-response curve is fitted to estimate the drug concentration corresponding to half the grayscale value.
(§6) Target protein remaining (%) refers to the percentage of target protein remaining in cells after treatment with protein degrader compounds.
(§7) Calculation method for target protein remaining (%): Use ImageJ software to measure grayscale values of Western blot bands from drug (protein degrader)-treated samples. The grayscale value of drug-treated bands is divided by that of internal control protein bands, and the resulting quotient is normalized to obtain the relative percentage of remaining target protein after protein degrader treatment.
(§8) Target protein degradation rate (%)=1−target protein remaining (%).

The target in experiment [5] is T2, BRG1 (Homo sapiens, UniProt P51532).
T2 construct: expression of target proteins in cells; endogenous in cells
T2 sequence (P51532 whole entry): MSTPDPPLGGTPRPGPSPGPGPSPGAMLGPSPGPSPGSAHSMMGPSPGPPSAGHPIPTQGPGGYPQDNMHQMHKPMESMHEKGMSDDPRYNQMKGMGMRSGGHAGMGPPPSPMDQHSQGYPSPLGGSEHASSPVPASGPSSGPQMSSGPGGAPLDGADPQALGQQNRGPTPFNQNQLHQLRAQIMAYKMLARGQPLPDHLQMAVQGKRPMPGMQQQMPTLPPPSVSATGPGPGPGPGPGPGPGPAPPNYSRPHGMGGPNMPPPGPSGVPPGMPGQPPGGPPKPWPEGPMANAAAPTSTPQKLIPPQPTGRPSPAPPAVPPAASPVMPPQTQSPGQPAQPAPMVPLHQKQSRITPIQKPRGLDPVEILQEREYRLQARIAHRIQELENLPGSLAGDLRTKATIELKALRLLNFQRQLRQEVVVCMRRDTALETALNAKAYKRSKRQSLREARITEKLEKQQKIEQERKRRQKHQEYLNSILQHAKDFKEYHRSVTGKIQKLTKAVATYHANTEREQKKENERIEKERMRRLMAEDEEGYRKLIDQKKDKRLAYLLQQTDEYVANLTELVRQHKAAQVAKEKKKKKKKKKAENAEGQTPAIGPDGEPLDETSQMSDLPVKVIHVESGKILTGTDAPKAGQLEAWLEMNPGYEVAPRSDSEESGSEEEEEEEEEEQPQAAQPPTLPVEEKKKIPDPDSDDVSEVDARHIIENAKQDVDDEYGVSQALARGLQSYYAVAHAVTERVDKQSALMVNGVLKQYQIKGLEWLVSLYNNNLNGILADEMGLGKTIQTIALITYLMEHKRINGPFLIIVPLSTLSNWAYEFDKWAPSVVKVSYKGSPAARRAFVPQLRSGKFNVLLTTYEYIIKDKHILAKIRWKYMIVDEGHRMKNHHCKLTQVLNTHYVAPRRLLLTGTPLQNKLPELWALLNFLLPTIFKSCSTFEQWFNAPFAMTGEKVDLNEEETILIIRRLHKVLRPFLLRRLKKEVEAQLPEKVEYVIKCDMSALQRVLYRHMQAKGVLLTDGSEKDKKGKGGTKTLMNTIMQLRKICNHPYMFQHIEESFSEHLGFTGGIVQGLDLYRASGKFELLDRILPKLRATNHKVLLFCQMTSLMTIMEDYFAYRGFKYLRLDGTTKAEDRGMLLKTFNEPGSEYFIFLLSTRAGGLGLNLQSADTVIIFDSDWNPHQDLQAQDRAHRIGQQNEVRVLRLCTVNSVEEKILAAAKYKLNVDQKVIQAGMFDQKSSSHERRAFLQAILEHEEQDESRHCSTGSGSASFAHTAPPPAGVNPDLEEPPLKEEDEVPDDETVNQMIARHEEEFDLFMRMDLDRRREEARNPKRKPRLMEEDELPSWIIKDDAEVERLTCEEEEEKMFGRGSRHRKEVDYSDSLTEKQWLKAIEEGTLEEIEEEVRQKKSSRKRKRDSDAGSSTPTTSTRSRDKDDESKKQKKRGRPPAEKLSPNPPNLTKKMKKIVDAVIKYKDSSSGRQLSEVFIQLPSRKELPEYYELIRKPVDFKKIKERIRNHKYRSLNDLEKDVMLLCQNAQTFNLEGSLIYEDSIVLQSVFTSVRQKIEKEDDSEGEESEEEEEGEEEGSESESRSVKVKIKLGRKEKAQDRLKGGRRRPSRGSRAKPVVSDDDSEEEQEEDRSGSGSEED
The experiment can be described thus: Western blot degradation of BRG1 (SMARCA4). In kind it is cell-based. Conditions: Molt-4 Cell; 24 hours. The procedure: as §1, §2, §3, §4, §5, §6, §7, §8

T1 sequence (P51531 whole entry): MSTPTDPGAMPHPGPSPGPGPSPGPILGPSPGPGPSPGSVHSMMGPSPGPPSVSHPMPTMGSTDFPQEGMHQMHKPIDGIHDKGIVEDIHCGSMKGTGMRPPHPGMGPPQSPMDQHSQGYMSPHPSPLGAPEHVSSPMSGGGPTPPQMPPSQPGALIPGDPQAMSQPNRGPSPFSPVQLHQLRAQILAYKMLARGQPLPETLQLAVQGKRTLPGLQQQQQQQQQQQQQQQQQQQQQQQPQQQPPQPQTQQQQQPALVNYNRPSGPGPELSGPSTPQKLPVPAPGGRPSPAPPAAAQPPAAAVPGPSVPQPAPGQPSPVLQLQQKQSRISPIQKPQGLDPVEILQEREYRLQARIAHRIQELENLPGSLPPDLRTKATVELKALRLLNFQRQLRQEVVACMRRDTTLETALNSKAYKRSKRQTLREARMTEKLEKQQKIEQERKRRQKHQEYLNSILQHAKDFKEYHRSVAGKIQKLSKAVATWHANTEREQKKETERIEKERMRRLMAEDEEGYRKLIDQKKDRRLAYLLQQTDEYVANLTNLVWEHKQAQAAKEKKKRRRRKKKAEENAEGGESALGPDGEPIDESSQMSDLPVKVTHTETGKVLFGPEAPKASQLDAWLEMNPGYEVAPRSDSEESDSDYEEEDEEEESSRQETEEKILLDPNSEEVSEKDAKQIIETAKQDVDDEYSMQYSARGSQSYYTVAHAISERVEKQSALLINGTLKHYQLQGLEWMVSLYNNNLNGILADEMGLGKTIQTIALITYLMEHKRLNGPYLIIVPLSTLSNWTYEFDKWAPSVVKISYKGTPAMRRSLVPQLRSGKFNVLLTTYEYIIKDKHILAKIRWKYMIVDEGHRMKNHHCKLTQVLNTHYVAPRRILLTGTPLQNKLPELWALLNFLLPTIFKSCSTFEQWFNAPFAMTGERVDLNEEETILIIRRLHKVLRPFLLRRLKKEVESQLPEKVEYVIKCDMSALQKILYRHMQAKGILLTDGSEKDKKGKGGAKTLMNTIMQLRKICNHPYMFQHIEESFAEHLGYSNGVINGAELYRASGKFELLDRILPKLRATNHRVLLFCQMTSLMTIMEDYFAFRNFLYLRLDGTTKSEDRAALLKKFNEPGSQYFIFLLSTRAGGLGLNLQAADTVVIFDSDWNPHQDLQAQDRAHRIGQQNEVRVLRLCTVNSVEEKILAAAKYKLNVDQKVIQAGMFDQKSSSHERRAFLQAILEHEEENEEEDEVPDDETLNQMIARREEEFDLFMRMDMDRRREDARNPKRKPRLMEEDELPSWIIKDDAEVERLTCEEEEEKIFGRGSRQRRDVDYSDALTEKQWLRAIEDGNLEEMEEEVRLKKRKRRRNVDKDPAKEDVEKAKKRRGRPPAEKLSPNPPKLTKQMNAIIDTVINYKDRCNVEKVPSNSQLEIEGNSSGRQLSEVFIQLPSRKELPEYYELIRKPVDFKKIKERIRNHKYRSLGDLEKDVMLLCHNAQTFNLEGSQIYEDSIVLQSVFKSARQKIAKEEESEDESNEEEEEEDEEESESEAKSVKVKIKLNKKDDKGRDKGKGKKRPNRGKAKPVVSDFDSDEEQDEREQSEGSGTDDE

As for `CC1(C)CCC(CN2CCN(c3ccc(C(=O)NS(=O)(=O)c4ccc(NCC5CCOCC5)c([N+](=O)[O-])c4)c(Oc4cnc5[nH]ccc5c4)c3)CC2)=C(c2ccc(Cl)cc2)C1` [ABT-199, Venetoclax, reference compound], the figures for the inhibition at 0.01 µM in experiment [1], in experiment [2] and in experiment [3] were -5 to 0%, -5 to 0% and 5 to 10%, respectively. The figures for the inhibition at 0.5 µM in experiment [1], in experiment [2] and in experiment [3] were 30 to 40%, -5 to 0% and 5 to 10%, respectively.

Regarding `Nc1nnc(-c2ccccc2O)cc1N1CCN(Cc2ccc3c(c2)CN(N2CCC(=O)NC2=O)C3=O)CC1` [GT-04952, 1-(5-((4-(3-amino-6-(2-hydroxyphenyl)pyridazin-4-yl)piperazin-1-yl)methyl)-1-oxoisoindolin-2-yl)dihydropyrimidine-2,4 (1H,3H)-dione], in experiment [4], the “Degradation of substrate protein BRM (substrate protein remaining %)” value is “A (0%≤substrate protein remaining %≤80%)”. Further, in experiment [5], the “Degradation of substrate protein BRG1 (substrate protein remaining %)” value was “A (0%≤substrate protein remaining %≤80%)”.

In the case of `Nc1nnc(-c2ccccc2O)cc1N1CCN(CC2CCN(c3ccc4c(c3)C(=O)N(N3CCC(=O)NC3=O)C4=O)CC2)CC1` [GT-04954, 5-(4-((4-(3-amino-6-(2-hydroxyphenyl)pyridazin-4-yl)piperazin-1-yl)methyl)piperidin-1-yl)-2-(2,4-dioxotetrahydropyrimidin-1(2H)-yl)isoindoline-1,3-dione], the “Degradation of substrate protein BRM (substrate protein remaining %)” value in experiment [4] was “A (0%≤substrate protein remaining %≤80%)”. The “Degradation of substrate protein BRG1 (substrate protein remaining %)” value in experiment [5] is “A (0%≤substrate protein remaining %≤80%)”.

For the molecule `Nc1nnc(-c2cc(F)ccc2O)cc1N1CCN(Cc2ccc3c(c2)CN(N2CCC(=O)NC2=O)C3=O)CC1` [GT-05061, 1-(5-((4-(3-amino-6-(5-fluoro-2-hydroxyphenyl)pyridazin-4-yl)piperazin-1-yl)methyl)-1-oxoisoindolin-2-yl)dihydropyrimidine-2,4 (1H,3H)-dione], in experiment [4], the “Degradation of substrate protein BRM (substrate protein remaining %)” value is “A (0%≤substrate protein remaining %≤80%)”. Moreover, the “Degradation of substrate protein BRG1 (substrate protein remaining %)” value in experiment [5] is recorded as “B (80%<substrate protein remaining %≤100%)”.

`Nc1nnc(-c2cc(F)ccc2O)cc1N1CCN(CC2CCN(c3ccc4c(c3)C(=O)N(N3CCC(=O)NC3=O)C4=O)CC2)CC1` [GT-05068, 5-(4-((4-(3-amino-6-(5-fluoro-2-hydroxyphenyl)pyridazin-4-yl)piperazin-1-yl)methyl)piperidin-1-yl)-2-(2,4-dioxotetrahydropyrimidin-1(2H)-yl)isoindoline-1,3-dione]: the “Degradation of substrate protein BRM (substrate protein remaining %)” value in experiment [4] is on record as “A (0%≤substrate protein remaining %≤80%)”. Moreover, the “Degradation of substrate protein BRG1 (substrate protein remaining %)” value in experiment [5] is “B (80%<substrate protein remaining %≤100%)”.

In the case of `Nc1nnc(-c2cc(F)ccc2O)cc1N1CCN(CC2CCN(c3cccc4c3C(=O)N(N3CCC(=O)NC3=O)C4=O)CC2)CC1` [GT-05069, 4-(4-((4-(3-amino-6-(5-fluoro-2-hydroxyphenyl)pyridazin-4-yl)piperazin-1-yl)methyl)piperidin-1-yl)-2-(2,4-dioxotetrahydropyrimidin-1(2H)-yl)isoindoline-1,3-dione], the “Degradation of substrate protein BRM (substrate protein remaining %)” value in experiment [4] was “A (0%≤substrate protein remaining %≤80%)”. In experiment [5], the “Degradation of substrate protein BRG1 (substrate protein remaining %)” value is on record as “A (0%≤substrate protein remaining %≤80%)”.

Take `Nc1nnc(-c2ccccc2O)cc1N1CCN(CC2CCN(c3cccc4c3C(=O)N(N3CCC(=O)NC3=O)C4=O)CC2)CC1` [GT-05070, 4-(4-((4-(3-amino-6-(2-hydroxyphenyl)pyridazin-4-yl)piperazin-1-yl)methyl)piperidin-1-yl)-2-(2,4-dioxotetrahydropyrimidin-1(2H)-yl)isoindoline-1,3-dione]: the “Degradation of substrate protein BRM (substrate protein remaining %)” value in experiment [4] was “A (0%≤substrate protein remaining %≤80%)”. Further, in experiment [5], the “Degradation of substrate protein BRG1 (substrate protein remaining %)” value is reported as “B (80%<substrate protein remaining %≤100%)”.

On to `Nc1nnc(-c2ccccc2O)cc1N1CCN(Cc2ccc3c(c2)C(=O)N(N2CCC(=O)NC2=O)C3=O)CC1` [GT-05071, 5-((4-(3-amino-6-(2-hydroxyphenyl)pyridazin-4-yl)piperazin-1-yl)methyl)-2-(2,4-dioxotetrahydropyrimidin-1(2H)-yl)isoindoline-1,3-dione], for which the “Degradation of substrate protein BRM (substrate protein remaining %)” value in experiment [4] is reported as “A (0%≤substrate protein remaining %≤80%)”. Moreover, the “Degradation of substrate protein BRG1 (substrate protein remaining %)” value in experiment [5] is listed as “B (80%<substrate protein remaining %≤100%)”.

In the case of `Nc1nnc(-c2cc(F)ccc2O)cc1N1CCN(Cc2ccc3c(c2)C(=O)N(N2CCC(=O)NC2=O)C3=O)CC1` [GT-05072, 5-((4-(3-amino-6-(5-fluoro-2-hydroxyphenyl)pyridazin-4-yl)piperazin-1-yl)methyl)-2-(2,4-dioxotetrahydropyrimidin-1(2H)-yl)isoindoline-1,3-dione], the “Degradation of substrate protein BRM (substrate protein remaining %)” value in experiment [4] is “A (0%≤substrate protein remaining %≤80%)”. The “Degradation of substrate protein BRG1 (substrate protein remaining %)” value in experiment [5] is on record as “B (80%<substrate protein remaining %≤100%)”.

With `Nc1nnc(-c2cc(F)ccc2O)cc1N1CCN(CC2CCN(C3CCN(c4ccc5c(c4)C(=O)N(N4CCC(=O)NC4=O)C5=O)CC3)CC2)CC1` [GT-05094, 5-(4-((4-(3-amino-6-(5-fluoro-2-hydroxyphenyl)pyridazin-4-yl)piperazin-1-yl)methyl)-[1,4′-bipiperidin]-1′-yl)-2-(2,4-dioxotetrahydropyrimidin-1(2H)-yl)isoindoline-1,3-dione], in experiment [4], the “Degradation of substrate protein BRM (substrate protein remaining %)” value is listed as “A (0%≤substrate protein remaining %≤80%)”. The “Degradation of substrate protein BRG1 (substrate protein remaining %)” value in experiment [5] is reported as “B (80%<substrate protein remaining %≤100%)”.

For the molecule `CC1(C)CCC(c2ccc(Cl)cc2)=C(CN2CCN(c3ccc(C(=O)NS(=O)(=O)c4ccc(N[C@H](CCN5CC6CCC(C5)N6Cc5ccc6c(c5)CN(N5CCC(=O)NC5=O)C6=O)CSc5ccccc5)c(S(=O)(=O)C(F)(F)F)c4)cc3)CC2)C1` [GT-07813, 4-(4-((4′-chloro-4,4-dimethyl-3,4,5,6-tetrahydro-[1,1′-biphenyl]-2-yl)methyl)piperazin-1-yl)-N-((4-(((2R)-4-(8-((2-(2,4-dioxotetrahydropyrimidin-1(2H)-yl)-1-oxoisoindolin-5-yl)methyl)-3,8-diazabicyclo[3.2.1]octan-3-yl)-1-(phenylthio)butan-2-yl)amino)-3-((trifluoromethyl)sulfonyl)phenyl)sulfonyl)benzamide], the inhibition at 0.01 µM lay within 10 to 15% in experiment [1], 5 to 10% in experiment [2] and 15 to 20% in experiment [3]. In addition, the values for the inhibition at 0.5 µM in experiment [1], in experiment [2] and in experiment [3] were 80 to 100%, 60 to 70% and 20 to 30%, respectively.
